The source of these data is patent US12662469B2 (SIRONAX LTD, priority 2018, dated 2026).

The first assay deals with Cell Necrosis. The experiment in a line: Cell necrosis assay / cell viability assay (necrosis inhibitor activity). Type of assay: cell-based. The following applies: necrosis inhibitor activity; EC data for 14-191 extrapolated; read-out: EC50.
`C[C@H]1CN(c2ncc(F)cn2)CCN1C(=O)N1OCC[C@H]1c1ccccc1` [Compound 109, ((S)-4-(5-fluoropyrimidin-2-yl)-2-methylpiperazin-1-yl)((S)-3-phenylisoxazolidin-2-yl)methanone]: the EC50 was 1 to 1000 nM. On the same count and under the same terms, in the case of `N#Cc1cccc(OC2CN(C(=O)N3N=CCC3c3cc(F)cc(F)c3)C2)c1` (stereo not shown) [Compound 71, 3-((1-(5-(3,5-difluorophenyl)-4,5-dihydro-1H-pyrazole-1-carbonyl)azetidin-3-yl)oxy)benzonitrile] it was 1 to 1000 nM; in that of `CN(c1ccccc1)C1CN(C(=O)N2N=CCC2c2ccccc2)C1` (stereo not shown) [Compound 20, (3-(methyl(phenyl)amino)azetidin-1-yl)(5-phenyl-4,5-dihydro-1H-pyrazol-1-yl)methanone], 1000 to 10000 nM. For `O=C(c1ccccc1)N1CCN(C(=O)N2N=CCC2c2ccccc2)CC1` (stereo not shown) [Compound 95, (4-benzoylpiperazin-1-yl)(5-phenyl-4,5-dihydro-1H-pyrazol-1-yl)methanone], the half-maximal effective concentration (EC50) was 1000 to 10000 nM.

`C[C@H]1CN(c2ncc(F)cn2)CCN1C(=O)N1N=CC[C@@H]1c1cccc(F)c1` [Compound 117B, ((R)-5-(3-fluorophenyl)-4,5-dihydro-1H-pyrazol-1-yl)((S)-4-(5-fluoropyrimidin-2-yl)-2-methylpiperazin-1-yl)methanone]: the EC50 is 1 to 1000 nM. For `O=C1NCc2cc(OC3CN(C(=O)N4N=CCC4c4cc(F)cc(F)c4)C3)ccc21` (stereo not shown) [Compound 167], the 50% effective concentration (EC50) was 1 to 1000 nM.

For the compound `O=C(N1CCCN(c2ncc(F)cn2)CC1)N1N=CCC1c1ccccc1` (stereo not shown) [Compound 96, (4-(5-fluoropyrimidin-2-yl)-1,4-diazepan-1-yl)(5-phenyl-4,5-dihydro-1H-pyrazol-1-yl)methanone], the half-maximal effective concentration (EC50) was 1000 to 10000 nM. As for `C[C@@H]1CN(c2ncc(F)cn2)C[C@H](C)N1C(=O)N1N=CCC1c1cc(F)cc(F)c1` (stereo partly drawn) [Compound 30, (5-(3,5-difluorophenyl)-4,5-dihydro-1H-pyrazol-1-yl)((2R,6S)-4-(5-fluoropyrimidin-2-yl)-2,6-dimethylpiperazin-1-yl)methanone], the EC50 was 1 to 1000 nM.

Take `CNC(=O)c1cccc(OC2CN(C(=O)N3N=CCC3c3cc(F)cc(F)c3)C2)c1` (stereo not shown) [Compound 163]: the concentration giving a half-maximal response (EC50) is 1 to 1000 nM. Turning to `O=C(N1CCN(c2ccccc2)CC1)N1N=CCC1c1ccccc1` (stereo not shown) [Compound 91, (5-phenyl-4,5-dihydro-1H-pyrazol-1-yl)(4-phenylpiperazin-1-yl)methanone], the concentration giving a half-maximal response (EC50) is 1000 to 10000 nM.

Consider `O=C(N1CC(Oc2ccc3nc[nH]c3c2)C1)N1N=CCC1c1cc(F)cc(F)c1` (stereo not shown) [Compound 178], for which the EC50 is 1 to 1000 nM. Turning to `O=C(N1CC(Oc2ccc(-c3ncc[nH]3)cc2)C1)N1N=CCC1c1cc(F)cc(F)c1` (stereo not shown) [Compound 166], the EC50 was 1 to 1000 nM. Same read-out and setting: in the case of `C[C@H]1CN(c2ncc(C#N)cn2)CCN1C(=O)N1N=CCC1c1ccccc1` (stereo partly drawn) [Compound 116B, 2-((3S)-3-methyl-4-(5-phenyl-4,5-dihydro-1H-pyrazole-1-carbonyl)piperazin-1-yl)pyrimidine-5-carbonitrile] it was 1000 to 10000 nM. Still for that read-out and setting: with `O=C(C1CC1)N1CCN(C(=O)N2N=CCC2c2ccccc2)CC1` (stereo not shown) [Compound 93, (4-(cyclopropanecarbonyl)piperazin-1-yl)(5-phenyl-4,5-dihydro-1H-pyrazol-1-yl)methanone] the figure was 1000 to 10000 nM. The same measure, in the same setting: with `O=C(N1CC(Oc2ccc(F)cn2)C1)N1N=CCC1c1ccccc1` (stereo not shown) [Compound 72, (3-((5-fluoropyridin-2-yl)oxy)azetidin-1-yl)(5-phenyl-4,5-dihydro-1H-pyrazol-1-yl)methanone] the figure was 1 to 1000 nM; with `O=C1NCc2c1csc2OC1CN(C(=O)N2N=CCC2c2cc(F)cc(F)c2)C1` (stereo not shown) [Compound 168], 1 to 1000 nM.

Still in this assay, the particulars now being: necrosis inhibitor activity; compounds outside 14-191; read-out: EC50.
For `N#Cc1cccc(O[C@@H]2CCN(C(=O)N3N=CC[C@H]3c3cc(F)cc(F)c3)C2)n1` [Compound 337, 6-(((R)-1-((S)-5-(3,5-difluorophenyl)-4,5-dihydro-1H-pyrazole-1-carbonyl)pyrrolidin-3-yl)oxy)picolinonitrile], the EC50 lay within 1 to 1000 nM.

Consider `CC(=O)Nc1ccnc(N2CCN(C(=O)N3N=CC[C@H]3c3cc(F)cc(F)c3)CC2)n1` [Compound 225], for which the concentration for a half-maximal effect (EC50) fell in the range of 1 to 1000 nM. Still for that read-out and setting: in the case of `NC(=O)CCNc1ncc(F)c(OC2CN(C(=O)N3N=CC[C@H]3c3cc(F)cc(F)c3)C2)n1` [Compound 270, (S)-3-((4-((1-(5-(3,5-difluorophenyl)-4,5-dihydro-1H-pyrazole-1-carbonyl)azetidin-3-yl)oxy)-5-fluoropyrimidin-2-yl)amino)propanamide] it was 1 to 1000 nM; in that of `O=C(N1CC(=Cc2ccc(Cl)nc2F)C1)N1N=CC[C@H]1c1cncc(F)c1` [Compound 294, (S)-(3-((6-chloro-2-fluoropyridin-3-yl)methylene)azetidin-1-yl)(5-(5-fluoropyridin-3-yl)-4,5-dihydro-1H-pyrazol-1-yl)methanone], 1 to 1000 nM; in that of `O=C(N1CC(=Cc2cc3[nH]nc(F)c3cc2F)C1)N1N=CC[C@H]1c1cncc(F)c1` [Compound 322, (S)-(3-((3,5-difluoro-1H-indazol-6-yl)methylene)azetidin-1-yl)(5-(5-fluoropyridin-3-yl)-4,5-dihydro-1H-pyrazol-1-yl)methanone], 1 to 1000 nM. The same measure, in the same setting: in the case of `O=C(N1CC(Oc2nc(NCCO)ncc2F)C1)N1N=CC[C@H]1c1cc(F)cc(F)c1` [Compound 266, (S)-(5-(3,5-difluorophenyl)-4,5-dihydro-H-pyrazol-1-yl)(3-((5-fluoro-2-((2-hydroxyethyl)amino)pyrimidin-4-yl)oxy)azetidin-1-yl)methanone] it was 1 to 1000 nM; in that of `CC1Oc2cc(F)c(OC3CN(C(=O)N4N=CC[C@H]4c4ccccc4)C3)cc2NC1=O` (stereo partly drawn) [Compound 352, 7-fluoro-2-methyl-6-((1-((S)-5-phenyl-4,5-dihydro-1H-pyrazole-1-carbonyl)azetidin-3-yl)oxy)-2H-benzo[b][1,4]oxazin-3(4H)-one], 1 to 1000 nM; in that of `O=C(N1CC(=Cc2cc3[nH]nc(Cl)c3cc2F)C1)N1N=CC[C@H]1c1cc(F)cc(F)c1` [Compound 285, (S)-(3-((3-chloro-5-fluoro-1H-indazol-6-yl)methylene)azetidin-1-yl)(5-(3,5-difluorophenyl)-4,5-dihydro-1H-pyrazol-1-yl)methanone], 1 to 1000 nM. The same measure, in the same setting: in the case of `O=C(CC1CCCC1)Nc1nc(N2CCN(C(=O)N3N=CC[C@H]3c3cc(F)cc(F)c3)CC2)ncc1F` [Compound 290] it was 1 to 1000 nM; in that of `O=C(N1CC(=Cc2cc(NCCN3CCOCC3)ccc2F)C1)N1N=CC[C@H]1c1cc(F)cc(F)c1` [Compound 371, (S)-(5-(3,5-difluorophenyl)-4,5-dihydro-1H-pyrazol-1-yl)(3-(2-fluoro-5-((2-morpholinoethyl)amino)benzylidene)azetidin-1-yl)methanone], 1 to 1000 nM. As for `NC(=O)c1nc(OC2CN(C(=O)N3N=CC[C@H]3c3cc(F)cc(F)c3)C2)sc1Cl` [Compound 274, (S)-5-chloro-2-((1-(5-(3,5-difluorophenyl)-4,5-dihydro-1H-pyrazole-1-carbonyl)azetidin-3-yl)oxy)thiazole-4-carboxamide], the EC50 fell in the range of 1 to 1000 nM. The same measure, in the same setting: with `O=C(N1CC2(CCC2)C1)N1N=CCC1c1ccccc1` (stereo not shown) [Compound 3, (5-phenyl-4,5-dihydro-1H-pyrazol-1-yl)(2-azaspiro[3.3]heptan-2-yl)methanone] the figure was 1 to 1000 nM. The same measure, in the same setting: in the case of `O=C(N1CC(Oc2cc3[nH]nc(F)c3cc2F)C1)N1N=CC[C@H]1c1cc(F)cc(F)c1` [Compound 376, (S)-(3-((3,5-difluoro-1H-indazol-6-yl)oxy)azetidin-1-yl)(5-(3,5-difluorophenyl)-4,5-dihydro-1H-pyrazol-1-yl)methanone] it was 1 to 1000 nM; in that of `O=C(N1CC(=Cc2ccc3c(c2)NC(=O)C3(F)F)C1)N1N=CC[C@H]1c1cc(F)cc(F)c1` [Compound 283, (S)-6-((1-(5-(3,5-difluorophenyl)-4,5-dihydro-1H-pyrazole-1-carbonyl)azetidin-3-ylidene)methyl)-3,3-difluoroindolin-2-one], 1 to 1000 nM; in that of `CC(C)CC(=O)Nc1nc(N2CCN(C(=O)N3N=CC[C@H]3c3cc(F)cc(F)c3)CC2)ncc1F` [Compound 291, (S)—N-(2-(4-(5-(3,5-difluorophenyl)-4,5-dihydro-1H-pyrazole-1-carbonyl)piperazin-1-yl)-5-fluoropyrimidin-4-yl)-3-methylbutanamide], 1 to 1000 nM. `CNC(=O)c1nc(OC2CN(C(=O)N3N=CC[C@H]3c3cc(F)cc(F)c3)C2)sc1Cl` [Compound 273, (S)-5-chloro-2-((1-(5-(3,5-difluorophenyl)-4,5-dihydro-1H-pyrazole-1-carbonyl)azetidin-3-yl)oxy)-N-methylthiazole-4-carboxamide]: the half-maximal effective concentration (EC50) lay within 1 to 1000 nM. The same measure, in the same setting: in the case of `CNc1cccc(OC2CN(C(=O)N3N=CCC3c3cc(F)cc(F)c3)C2)c1` (stereo not shown) [Compound 231, (5-(3,5-difluorophenyl)-4,5-dihydro-1H-pyrazol-1-yl)(3-(3-(methylamino)phenoxy)azetidin-1-yl)methanone] it was 1 to 1000 nM. The same measure, in the same setting: in the case of `O=C(N1CC(Oc2cc3[nH]nc(F)c3cc2F)C1)N1N=CCC1c1cncc(F)c1` (stereo not shown) [Compound 378, (3-((3,5-difluoro-1H-indazol-6-yl)oxy)azetidin-1-yl)(5-(5-fluoropyridin-3-yl)-4,5-dihydro-1H-pyrazol-1-yl)methanone] it was 1 to 1000 nM; in that of `N#Cc1ccnc(O[C@@H]2CCN(C(=O)N3N=CC[C@H]3c3cc(F)cc(F)c3)C2)n1` [Compound 359, 2-(((R)-1-((S)-5-(3,5-difluorophenyl)-4,5-dihydro-1H-pyrazole-1-carbonyl)pyrrolidin-3-yl)oxy)pyrimidine-4-carbonitrile], 1 to 1000 nM; in that of `O=C(N1CCCCC1)N1N=CCC1c1ccccc1` (stereo not shown) [Compound 7, (5-phenyl-4,5-dihydro-1H-pyrazol-1-yl)(piperidin-1-yl)methanone], 1 to 1000 nM.

Regarding `O=C(NC1CCC1)N1N=CCC1c1ccccc1` (stereo not shown) [Compound 2, N-cyclobutyl-5-phenyl-4,5-dihydro-1H-pyrazole-1-carboxamide], the EC50 lay in the range of 1 to 1000 nM.

Usually EC50 stands for the concentration giving half of the maximal effect.
